Data taken from ChEMBL document CHEMBL1201862, “PubChem BioAssay data set” (2004).
Calls of active or inactive are those of the source.

Tests used:
[1] = target: 72 kDa type IV collagenase (Homo sapiens, UniProt P08253); test: Dose Response validation of uHTS RPN11 inhibitor hits using a MMP-2 Fluorescence assay.; format: functional
[2] = target: Prothrombin (Bos taurus, UniProt P00735); test: thrombin protease inhibitors – biochemical, fluorescence polarization, uHTS hits, dose response (AID 602369); format: functional
[3] = target: Heat shock protein HSP 90-alpha (Homo sapiens, UniProt P07900); format: functional, organism-based
[4] = target: 26S proteasome non-ATPase regulatory subunit 14 (Homo sapiens, UniProt O00487); test: inhibition of proteasome subunit RPN11 – biochemical, fluorescence polarization, uHTS hits, confirmation (AID 602368); format: functional
[5] = target: T1, Apoptotic protease-activating factor 1 (Homo sapiens, UniProt O14727); format: functional
T1 sequence (O14727 whole entry): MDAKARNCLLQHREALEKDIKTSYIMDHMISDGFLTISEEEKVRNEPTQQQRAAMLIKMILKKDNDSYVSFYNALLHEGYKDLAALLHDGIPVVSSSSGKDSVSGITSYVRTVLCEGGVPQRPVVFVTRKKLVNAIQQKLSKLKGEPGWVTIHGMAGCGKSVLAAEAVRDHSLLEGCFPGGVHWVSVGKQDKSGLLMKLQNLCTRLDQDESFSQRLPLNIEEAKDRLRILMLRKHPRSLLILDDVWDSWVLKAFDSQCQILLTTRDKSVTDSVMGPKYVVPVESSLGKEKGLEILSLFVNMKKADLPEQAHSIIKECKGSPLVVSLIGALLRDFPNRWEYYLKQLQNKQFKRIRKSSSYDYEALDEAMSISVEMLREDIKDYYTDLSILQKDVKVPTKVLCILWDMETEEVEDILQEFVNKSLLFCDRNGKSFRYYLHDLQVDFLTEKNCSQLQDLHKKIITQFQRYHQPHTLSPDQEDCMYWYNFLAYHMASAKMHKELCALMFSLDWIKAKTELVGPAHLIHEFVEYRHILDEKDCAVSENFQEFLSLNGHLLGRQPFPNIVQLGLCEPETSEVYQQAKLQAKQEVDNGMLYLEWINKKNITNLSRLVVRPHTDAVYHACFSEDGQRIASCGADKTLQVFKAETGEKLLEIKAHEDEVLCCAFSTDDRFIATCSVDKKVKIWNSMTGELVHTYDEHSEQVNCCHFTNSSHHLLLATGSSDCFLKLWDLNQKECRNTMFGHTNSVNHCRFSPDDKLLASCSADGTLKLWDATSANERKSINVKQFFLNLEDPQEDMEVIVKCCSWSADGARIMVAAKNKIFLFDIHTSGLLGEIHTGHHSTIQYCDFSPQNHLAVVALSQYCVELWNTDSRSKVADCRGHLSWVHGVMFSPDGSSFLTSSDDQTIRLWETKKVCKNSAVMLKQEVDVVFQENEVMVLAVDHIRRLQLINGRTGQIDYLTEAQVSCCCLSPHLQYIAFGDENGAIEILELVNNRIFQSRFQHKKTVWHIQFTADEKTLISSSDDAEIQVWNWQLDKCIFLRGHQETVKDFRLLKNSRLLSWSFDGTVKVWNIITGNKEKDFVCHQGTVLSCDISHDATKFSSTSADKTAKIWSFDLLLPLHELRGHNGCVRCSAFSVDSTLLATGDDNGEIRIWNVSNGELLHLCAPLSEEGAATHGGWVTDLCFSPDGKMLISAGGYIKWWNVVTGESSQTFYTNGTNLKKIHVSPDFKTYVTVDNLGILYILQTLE

[6] = NIH3T3 cell viability loss – ATP luminescence, mouse fibroblasts, counter-screen, dose response (AID 2010); format: functional, cell-based;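 further: cells exposed to compound for about 90 hours before reading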
[7] = test system: Vero; test: viability of Vero cells under compound – cytotoxicity control for flavivirus capping enzyme inhibitors (AID 588742); format: functional; settings: Chlorocebus sabaeus
[8] = Trypanosoma cruzi growth suppression in host cells – NIH3T3 host cells, beta-gal luminescence, confirmation (AID 2044); format: functional, cell-based;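 further: intracellular parasites grown in NIH/3T3 mouse fibroblasts as host cells; luminescent beta-galactosidase reporter signal from transgenic T. cruzi replicating inside host cells; inhibitors lower the luminescence signal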
[9] = target: T2, Endoribonuclease toxin MazF (Escherichia coli K-12, UniProt P0AE70); test: substrate-only fluorescence increase artefacts – biochemical, single-stranded RNase substrate, counter-screen for MazEF activator project, dose response (AID 588502); format: functional
T2 sequence (P0AE70 whole entry): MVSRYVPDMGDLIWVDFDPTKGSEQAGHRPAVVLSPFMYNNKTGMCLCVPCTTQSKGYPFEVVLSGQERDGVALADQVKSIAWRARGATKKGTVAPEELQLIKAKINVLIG

[10] = target: T2, Endoribonuclease toxin MazF; test: activation of MazEF endoribonuclease cleavage – biochemical, fluorescence, single-stranded RNA substrate, uHTS hits, dose response (AID 588481); format: functional
[11] = Luminescence Cell-Based Dose Response HTS to Identify Activators of Luciferase Translation or Activity in H4 […] Cells. [Related pubchem assays: 1829 (Project Summary), 1814 (Primary HTS)]; format: functional
[12] = Luminescence Cell-Based Dose Confirmation HTS to Identify Activators of 5'UTR Stem-Loop Driven Alpha-Synuclein mRNA Translation in H4 Neuroglioblastoma Cells. [Related pubchem assays: 1829 (Project Summary), 1814 (Primary HTS)]; format: functional
[13] = test system: H4; test: Luminescence Cell-Based Dose Response HTS to Identify Activators of 5'UTR Stem-Loop Driven Prion Protein mRNA Translation in H4 Neuroglioblastoma Cells. [Related pubchem assays: 1829 (Project Summary), 1814 (Primary HTS)]; format: functional; settings: Homo sapiens
[14] = target: T3, Corticotropin-releasing factor receptor 2/Corticotropin-releasing factor-binding protein (Homo sapiens, UniProt P24387+Q13324); test: activators of CRF receptor 2 with binding protein – uHTS hits, confirmation (AID 602473); format: functional; settings: read-out: EC50_Mean
T3 sequence (Q13324 whole entry): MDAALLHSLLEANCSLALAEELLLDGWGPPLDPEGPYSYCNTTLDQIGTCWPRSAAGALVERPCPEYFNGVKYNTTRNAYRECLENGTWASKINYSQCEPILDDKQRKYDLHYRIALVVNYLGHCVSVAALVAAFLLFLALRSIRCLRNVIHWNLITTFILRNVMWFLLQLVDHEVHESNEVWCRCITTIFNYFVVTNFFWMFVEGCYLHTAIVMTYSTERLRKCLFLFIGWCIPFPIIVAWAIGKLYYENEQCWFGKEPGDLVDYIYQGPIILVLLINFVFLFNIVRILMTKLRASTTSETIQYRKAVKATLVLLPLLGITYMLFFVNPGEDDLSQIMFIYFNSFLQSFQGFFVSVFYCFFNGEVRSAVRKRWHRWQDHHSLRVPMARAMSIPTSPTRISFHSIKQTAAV
T3 sequence (P24387 whole entry): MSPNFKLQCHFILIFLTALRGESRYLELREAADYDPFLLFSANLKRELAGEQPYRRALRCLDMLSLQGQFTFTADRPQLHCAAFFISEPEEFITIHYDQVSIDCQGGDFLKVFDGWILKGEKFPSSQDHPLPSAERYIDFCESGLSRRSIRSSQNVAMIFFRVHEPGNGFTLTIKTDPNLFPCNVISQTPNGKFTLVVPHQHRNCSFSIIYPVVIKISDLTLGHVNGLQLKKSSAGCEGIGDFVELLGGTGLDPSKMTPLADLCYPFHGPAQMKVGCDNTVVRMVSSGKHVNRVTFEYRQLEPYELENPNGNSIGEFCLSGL

[15] = target: T4, Aminopeptidase N (Plasmodium falciparum FcB1/Columbia, UniProt O96935); test: malaria alanyl aminopeptidase activity blockers – biochemical, fluorogenic H-Leu-NHMec substrate, 1536-well (AID 1445); design: species or system Plasmodium falciparum 3D7, 3D7
T4 sequence (O96935 whole entry): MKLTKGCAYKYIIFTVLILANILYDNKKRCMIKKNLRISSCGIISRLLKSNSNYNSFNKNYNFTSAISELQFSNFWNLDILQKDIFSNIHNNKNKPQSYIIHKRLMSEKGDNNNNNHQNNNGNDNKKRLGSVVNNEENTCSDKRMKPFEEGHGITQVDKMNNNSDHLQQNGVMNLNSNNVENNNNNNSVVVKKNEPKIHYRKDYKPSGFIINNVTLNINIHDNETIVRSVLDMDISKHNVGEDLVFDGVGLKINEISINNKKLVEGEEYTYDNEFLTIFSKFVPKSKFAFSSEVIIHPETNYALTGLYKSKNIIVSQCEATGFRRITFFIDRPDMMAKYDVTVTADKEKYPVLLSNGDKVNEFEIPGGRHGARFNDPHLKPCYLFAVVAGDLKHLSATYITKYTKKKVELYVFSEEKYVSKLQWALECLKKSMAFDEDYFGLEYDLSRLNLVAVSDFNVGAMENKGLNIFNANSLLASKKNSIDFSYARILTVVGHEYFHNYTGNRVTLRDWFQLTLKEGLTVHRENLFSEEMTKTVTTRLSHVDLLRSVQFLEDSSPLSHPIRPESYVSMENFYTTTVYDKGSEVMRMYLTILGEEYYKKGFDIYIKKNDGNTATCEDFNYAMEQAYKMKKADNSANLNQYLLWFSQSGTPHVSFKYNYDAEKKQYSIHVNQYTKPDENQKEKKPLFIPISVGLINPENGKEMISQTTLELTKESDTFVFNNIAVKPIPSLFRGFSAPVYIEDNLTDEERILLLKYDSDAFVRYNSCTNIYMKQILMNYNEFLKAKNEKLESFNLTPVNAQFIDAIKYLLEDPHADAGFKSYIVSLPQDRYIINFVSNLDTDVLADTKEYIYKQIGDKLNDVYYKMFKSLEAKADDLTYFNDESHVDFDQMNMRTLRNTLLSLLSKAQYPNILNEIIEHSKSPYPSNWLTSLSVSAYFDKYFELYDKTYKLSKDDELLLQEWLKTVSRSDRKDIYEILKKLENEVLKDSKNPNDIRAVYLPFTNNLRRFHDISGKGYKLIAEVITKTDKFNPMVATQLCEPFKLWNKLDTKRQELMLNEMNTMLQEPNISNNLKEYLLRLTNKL

[16] = fluconazole-exposed Candida albicans growth modulators – fluorescence, retest, confirmation (AID 2467); format: functional, cell-based
[17] = Vero E6 cell cytotoxicity, dose response, cytotoxicity control for non-replicating M. tuberculosis project, secondary assay (AID 492998); format: functional, VeroE6; settings: Vero C1008
[18] = NIH-3T3 fibroblast cytotoxicity, dose response, cytotoxicity control, cell-based, fluorescence, Alamar Blue, secondary assay (AID 2327); format: functional;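 further: NIH-3T3 mouse fibroblasts cultured with fluconazole at 8 µg/mL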
[19] = THP-1 cell cytotoxicity, dose response, cytotoxicity control for non-replicating M. tuberculosis project (AID 489025); format: functional
[20] = target: Genome polyprotein (dengue virus type 2, UniProt P29990); test: flavivirus cap methylation enzyme inhibition – biochemical, confirmation dose response, primary screen (AID 588689); format: functional
[21] = target: Dual specificity tyrosine-phosphorylation-regulated kinase 1A (Rattus norvegicus, UniProt Q63470); format: biochemical, Homo sapiens
[22] = cells; format: functional

Chain of 72 kDa type IV collagenase (P08253 whole entry): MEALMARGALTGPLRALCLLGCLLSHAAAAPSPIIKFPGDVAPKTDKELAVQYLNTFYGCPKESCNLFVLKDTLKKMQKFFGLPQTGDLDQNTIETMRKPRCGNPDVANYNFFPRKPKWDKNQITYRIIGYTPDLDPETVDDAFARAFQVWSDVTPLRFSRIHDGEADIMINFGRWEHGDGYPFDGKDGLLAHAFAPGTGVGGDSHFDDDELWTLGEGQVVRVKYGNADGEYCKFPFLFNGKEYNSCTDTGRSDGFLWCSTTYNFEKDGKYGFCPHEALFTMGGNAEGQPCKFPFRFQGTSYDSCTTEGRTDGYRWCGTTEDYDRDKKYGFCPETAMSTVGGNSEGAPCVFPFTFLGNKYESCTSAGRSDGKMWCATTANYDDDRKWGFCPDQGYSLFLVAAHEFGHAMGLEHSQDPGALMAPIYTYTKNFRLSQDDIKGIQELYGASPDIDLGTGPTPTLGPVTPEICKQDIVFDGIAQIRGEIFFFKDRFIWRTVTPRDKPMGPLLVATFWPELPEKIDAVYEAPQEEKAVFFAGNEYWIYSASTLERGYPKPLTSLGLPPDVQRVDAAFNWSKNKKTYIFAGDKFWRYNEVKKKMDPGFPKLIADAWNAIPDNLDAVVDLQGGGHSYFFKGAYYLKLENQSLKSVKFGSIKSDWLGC
Chain of 26S proteasome non-ATPase regulatory subunit 14 (O00487 whole entry): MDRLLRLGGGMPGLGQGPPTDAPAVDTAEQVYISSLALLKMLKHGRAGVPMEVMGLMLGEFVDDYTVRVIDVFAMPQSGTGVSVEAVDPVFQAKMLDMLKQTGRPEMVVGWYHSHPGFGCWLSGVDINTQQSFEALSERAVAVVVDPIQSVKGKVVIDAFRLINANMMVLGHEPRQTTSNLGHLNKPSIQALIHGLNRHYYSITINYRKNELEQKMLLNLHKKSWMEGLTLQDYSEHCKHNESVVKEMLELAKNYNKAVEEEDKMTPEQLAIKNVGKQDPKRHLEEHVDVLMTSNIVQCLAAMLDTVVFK
Chain of Genome polyprotein (P29990 2492-3391 limits assumed): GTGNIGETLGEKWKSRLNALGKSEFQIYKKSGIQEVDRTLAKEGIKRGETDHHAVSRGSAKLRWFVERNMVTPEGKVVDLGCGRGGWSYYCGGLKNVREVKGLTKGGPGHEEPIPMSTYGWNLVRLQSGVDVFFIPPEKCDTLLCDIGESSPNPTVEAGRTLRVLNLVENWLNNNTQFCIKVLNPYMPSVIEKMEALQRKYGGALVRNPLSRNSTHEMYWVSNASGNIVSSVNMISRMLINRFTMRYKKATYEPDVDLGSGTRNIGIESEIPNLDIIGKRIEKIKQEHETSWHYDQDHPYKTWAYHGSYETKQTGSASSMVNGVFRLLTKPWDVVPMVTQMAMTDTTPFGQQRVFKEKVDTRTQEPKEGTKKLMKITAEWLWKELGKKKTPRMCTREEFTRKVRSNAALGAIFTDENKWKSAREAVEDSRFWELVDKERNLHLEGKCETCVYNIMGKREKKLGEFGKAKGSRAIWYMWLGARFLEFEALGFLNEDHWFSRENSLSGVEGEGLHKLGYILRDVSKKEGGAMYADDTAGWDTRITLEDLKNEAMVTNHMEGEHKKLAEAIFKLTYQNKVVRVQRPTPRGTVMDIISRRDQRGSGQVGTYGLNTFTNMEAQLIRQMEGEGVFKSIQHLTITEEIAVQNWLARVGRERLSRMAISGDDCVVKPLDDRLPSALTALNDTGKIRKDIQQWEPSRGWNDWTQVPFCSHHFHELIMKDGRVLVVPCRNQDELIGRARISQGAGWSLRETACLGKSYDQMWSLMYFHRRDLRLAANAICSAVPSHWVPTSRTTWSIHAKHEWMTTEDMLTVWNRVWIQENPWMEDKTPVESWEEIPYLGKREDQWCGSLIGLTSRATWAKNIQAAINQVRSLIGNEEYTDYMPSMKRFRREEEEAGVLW

## Cc1cc(N=Nc2ccccc2C(=O)O)c(C)c(C)c1O
[1]
  IC50: 43.4 µM (active)
[2]
  IC50: 34.2 µM (active)
[3]
  AC50: 4.36 µM (active)
[4]
  IC50: 25.4 µM (active)

## COc1ccc(-c2nc3nc(C)c(Cc4ccccc4)c(O)n3n2)cc1
[5]
  IC50: 30.6 µM (active)

## Cc1cc(Br)c(Cl)cc1NC(=O)CN1C(=O)C2C3CC(c4ccccc4)C(C3)C2C1=O (stereo unspecified)
[6]
  EC50: 7.41 µM (active)
[7]
  CC50: > 40 µM (active)
[8]
  EC50: 2.59 µM (active)

## Cc1ccccc1NC(=O)C1c2cccc[n+]2CC(=O)N1c1c(C)cccc1C (stereo unspecified)
[9]
  EC50: > 99 µM (inactive)
[10]
  EC50: > 99 µM (inactive)

## CCOc1ccc2nc(NC(=O)Cn3[nH]c(=O)c4ccccc4c3=O)sc2c1
[11]
  EC50: 5.14 µM (active)
[1]
  IC50: > 100 µM (inactive)
[12]
  EC50: > 120 µM (not active)
[13]
  EC50: 54.3 µM (active)
[2]
  IC50: 90.4 µM (active)
[4]
  IC50: 39.7 µM (active)

## COc1ccc(/C=N/Nc2ccc([N+](=O)[O-])cc2S(=O)(=O)N2CCN(C)CC2)cc1
[14]
  EC50: 6.27 µM (active)
[9]
  EC50: 8.43 µM (active)
[10]
  EC50: > 99 µM (inactive)

## Cc1cc(C(=O)NN=C(S)NCc2ccco2)nn1C
[15]
  IC50: 57.7 µM (active)

## O=C(NCCN1CCOCC1)c1cc2c(=O)n3ccccc3nc2n1Cc1ccccc1
[15]
  IC50: 102 µM (active)

## O=C(Nc1ncc([N+](=O)[O-])s1)c1cccs1
[16]
  EC50: 0.069 µM (active)
[17]
  CC50: > 20 µM (active)
[18]
  EC50: > 150 µM (inactive)
[19]
  CC50: 34.3 µM (active)

## Cc1ccc(S(=O)(=O)N2[C@@H](c3ccc(Br)cc3)C(C(=O)O)=CC[C@H]2c2ccc(C(C)C)cc2)cc1
[20]
  IC50: 32.9 µM (active)
[7]
  CC50: > 40 µM (active)

## COc1ccc(/C=C2\SC(N3CCCCC3)=NC2=O)cc1
[21]
  AC50: 0.308 µM (active)

## O=C(Nc1cccc([N+](=O)[O-])c1)Nc1ccc2c(c1)CCC2
[6]
  EC50: > 60 µM (not active)
[9]
  EC50: > 99 µM (inactive)
[10]
  EC50: > 99 µM (inactive)
[8]
  EC50: 3.27 µM (active)

## CCc1nc2oc3ccccc3c(=O)c2c(=O)n1-c1ccc(C)cc1
[1]
  IC50: > 100 µM (inactive)
[2]
  IC50: 87.5 µM (active)
[4]
  IC50: 24.5 µM (active)

## COc1ccc2c(C)cc(SCC(=O)Nc3cc(C(N)=O)cc(C(N)=O)c3)nc2c1
[9]
  EC50: > 99 µM (inactive)
[10]
  EC50: > 99 µM (inactive)

## COc1ccc(OC)c(NC(=O)C(=O)NNC(=O)C23CC4CC(CC(C4)C2)C3)c1
[17]
  CC50: > 20 µM (active)
[19]
  CC50: > 40 µM (active)
[22]
  IC50: 8.62 µM (active)

## CN(C)c1oc(/C=C/c2ccccc2)nc1C#N
[15]
  IC50: 23.9 µM (active)
